# Measurements taken from ChEMBL document CHEMBL1201862, “PubChem BioAssay data set” (2004).
# Activity calls are given as the source filed them.
# Experiments:
# [1] = target: T1, Replicative DNA helicase DnaB (Mycobacterium tuberculosis, UniProt P9WMR3); assay: DnaB intein splicing inhibitors, dose response, biochemical, cell-free fluorescence (AID 449749); assay type: functional
# T1 sequence (P9WMR3 whole entry): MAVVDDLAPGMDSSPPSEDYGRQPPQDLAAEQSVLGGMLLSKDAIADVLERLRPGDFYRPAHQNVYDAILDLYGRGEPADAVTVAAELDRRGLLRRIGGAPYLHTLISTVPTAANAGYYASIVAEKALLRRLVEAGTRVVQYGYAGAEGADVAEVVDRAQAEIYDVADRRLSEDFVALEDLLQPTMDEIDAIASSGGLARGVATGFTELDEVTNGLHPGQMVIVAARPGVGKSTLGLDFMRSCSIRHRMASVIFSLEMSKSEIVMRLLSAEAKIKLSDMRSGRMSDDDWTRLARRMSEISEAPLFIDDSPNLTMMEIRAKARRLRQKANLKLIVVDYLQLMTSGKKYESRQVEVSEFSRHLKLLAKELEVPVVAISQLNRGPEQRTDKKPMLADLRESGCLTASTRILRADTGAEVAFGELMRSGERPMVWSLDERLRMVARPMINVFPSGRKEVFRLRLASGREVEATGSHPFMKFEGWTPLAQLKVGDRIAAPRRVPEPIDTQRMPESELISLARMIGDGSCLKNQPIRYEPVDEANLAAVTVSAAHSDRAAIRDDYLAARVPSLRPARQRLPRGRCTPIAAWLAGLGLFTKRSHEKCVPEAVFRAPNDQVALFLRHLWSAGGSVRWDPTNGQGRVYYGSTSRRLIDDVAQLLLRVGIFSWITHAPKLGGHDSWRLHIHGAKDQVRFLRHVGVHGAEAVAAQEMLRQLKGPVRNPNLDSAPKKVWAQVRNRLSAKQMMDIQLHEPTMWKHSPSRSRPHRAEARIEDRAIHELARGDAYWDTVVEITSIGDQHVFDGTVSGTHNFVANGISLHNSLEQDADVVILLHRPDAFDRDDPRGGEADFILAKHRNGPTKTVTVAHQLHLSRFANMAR
# [2] = target: Sphingosine 1-phosphate receptor 1 (Homo sapiens, UniProt P21453); assay type: functional;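 also: Tango beta-arrestin reporter U2OS cells stimulated with S1P near its EC80; inhibitor potency meaning antagonism of receptor activation by the natural agonist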
# [3] = target: Sphingosine 1-phosphate receptor 2 (Homo sapiens, UniProt O95136); assay: Dose Response Cell Based Assay for Antagonists of the S1P2 Receptor. [Related pubchem assays: 856, 736 ]; assay type: functional
# Protein RecA = target: T2, Protein RecA (Mycobacterium tuberculosis, UniProt P9WHJ3); assay: Fluorescence Cell-Free Homogeneous Dose Retest to Identify Inhibitors of RecA-Intein Splicing Activity. [Related pubchem assays (depositor defined):AID2097, AID2223, AID489010, AID492950]; assay type: functional
# T2 sequence (P9WHJ3 whole entry): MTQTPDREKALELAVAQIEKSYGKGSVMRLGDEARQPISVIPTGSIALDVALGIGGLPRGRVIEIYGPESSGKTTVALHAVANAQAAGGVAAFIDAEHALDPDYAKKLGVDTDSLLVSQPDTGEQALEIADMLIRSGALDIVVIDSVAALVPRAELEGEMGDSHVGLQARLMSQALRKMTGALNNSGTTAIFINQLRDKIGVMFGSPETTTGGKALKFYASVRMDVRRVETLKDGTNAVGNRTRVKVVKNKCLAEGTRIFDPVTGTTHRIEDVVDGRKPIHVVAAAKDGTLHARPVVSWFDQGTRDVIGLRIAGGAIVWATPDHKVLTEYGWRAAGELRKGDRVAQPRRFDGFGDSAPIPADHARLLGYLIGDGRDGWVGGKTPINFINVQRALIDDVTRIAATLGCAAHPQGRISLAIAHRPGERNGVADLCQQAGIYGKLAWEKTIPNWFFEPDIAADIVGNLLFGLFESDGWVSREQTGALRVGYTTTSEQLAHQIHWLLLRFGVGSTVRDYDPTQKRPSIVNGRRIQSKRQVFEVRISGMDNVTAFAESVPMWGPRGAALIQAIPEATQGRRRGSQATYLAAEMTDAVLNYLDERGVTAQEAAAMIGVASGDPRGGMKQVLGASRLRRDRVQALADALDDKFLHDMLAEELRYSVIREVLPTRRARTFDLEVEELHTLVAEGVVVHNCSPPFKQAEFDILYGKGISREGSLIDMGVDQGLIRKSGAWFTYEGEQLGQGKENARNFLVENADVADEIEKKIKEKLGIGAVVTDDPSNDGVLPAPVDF
# [4] = reduction of Shn3 3'UTR-driven luciferase in osteoblasts – cell-based, Clone20 osteoblasts, firefly luciferase, cherry-picked, dose response (AID 624132); assay type: functional;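 also: firefly luciferase luminescence from reporter carrying the Shn3 3'UTR in osteoblasts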
# [5] = target: T3, Sphingosine 1-phosphate receptor 4 (Homo sapiens, UniProt O95977); assay: Fluorescence dose response cell-based high throughput screening assay for antagonists of the Sphingosine 1-Phosphate Receptor 4 (S1P4). [Related pubchem assays: 1524 (Confirmation in triplicates.), 1510 (Primary screen.)]; assay type: functional
# T3 sequence (O95977 whole entry): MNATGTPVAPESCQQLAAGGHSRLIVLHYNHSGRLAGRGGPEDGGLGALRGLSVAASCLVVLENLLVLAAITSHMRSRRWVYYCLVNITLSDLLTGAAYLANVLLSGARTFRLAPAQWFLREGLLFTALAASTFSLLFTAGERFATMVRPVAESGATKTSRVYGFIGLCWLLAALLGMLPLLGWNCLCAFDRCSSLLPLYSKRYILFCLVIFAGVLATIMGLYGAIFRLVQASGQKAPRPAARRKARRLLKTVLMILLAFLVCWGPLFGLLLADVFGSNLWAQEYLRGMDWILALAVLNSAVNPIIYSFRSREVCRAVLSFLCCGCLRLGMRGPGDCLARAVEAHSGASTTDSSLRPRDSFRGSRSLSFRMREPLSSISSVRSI
# [6] = non-specific 3'UTR reporter inhibition in Clone20-Shn3RL – cell-based, Renilla luciferase, cherry-picked, counter-screen for Shn3 inhibitor project, dose response (AID 624133); assay type: functional
# [7] = HEK-293T viability loss after treatment – luminescence, T-cell screen hits, cytotoxicity control for TCR NF-kB inhibitor project, dose response (AID 489026); assay type: functional, cell-based;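 also: cells exposed to compound about 14 hours before the viability readout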
# Beta Lactamase = Beta Lactamase (Pseudomonas aeruginosa, UniProt Q932Y6); assay: BLA reporter interference, concentration series – BLA reporter cells, FRET fluorescence, artefact control for TLR9-MyD88 binding inhibitor project, dose response (AID 588341); assay type: cell-based;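 also: cell based assay in CHO-K1 cells stably expressing beta-lactamase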
# [8] = loss of viability in HepG2 cells – cell-based, CellTiter-Glo, cherry-picked, cytotoxicity control for Shn3 inhibitor project, dose response (AID 624134); assay type: functional
# CHO = CHO cell viability loss, potency – luminescence, cytotoxicity control for TLR9-MyD88 binding inhibitor project, dose response (AID 588339); assay type: functional, cell-based, hamster; settings: Cricetulus griseus;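 also: CHO cells stably coexpressing TLR9 and MyD88 fusions from primary screen; compound exposure lasted 48 hours before viability readout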
# [9] = target: T4, Sentrin-specific protease 8 (Homo sapiens, UniProt Q96LD8); assay: inhibition of human SENP8 cleavage activity – biochemical, luminescence, SAR follow-up (AID 504501); assay type: functional
# T4 sequence (Q96LD8 whole entry): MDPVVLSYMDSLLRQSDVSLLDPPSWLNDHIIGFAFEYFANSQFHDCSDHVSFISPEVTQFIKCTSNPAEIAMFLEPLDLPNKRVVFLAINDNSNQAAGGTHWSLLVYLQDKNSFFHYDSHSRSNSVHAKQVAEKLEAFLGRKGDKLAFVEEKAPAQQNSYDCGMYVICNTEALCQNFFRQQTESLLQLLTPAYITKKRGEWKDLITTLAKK
# [10] = target: T5, Sentrin-specific protease 6 (Homo sapiens, UniProt Q9GZR1); assay: SAR Analysis of small molecule inhibitors of Sentrin-specific protease 6 (SENP6) using a Luminescent assay. [Related pubchem assays (depositor defined):AID2582, AID2599]; assay type: functional
# T5 sequence (Q9GZR1 whole entry): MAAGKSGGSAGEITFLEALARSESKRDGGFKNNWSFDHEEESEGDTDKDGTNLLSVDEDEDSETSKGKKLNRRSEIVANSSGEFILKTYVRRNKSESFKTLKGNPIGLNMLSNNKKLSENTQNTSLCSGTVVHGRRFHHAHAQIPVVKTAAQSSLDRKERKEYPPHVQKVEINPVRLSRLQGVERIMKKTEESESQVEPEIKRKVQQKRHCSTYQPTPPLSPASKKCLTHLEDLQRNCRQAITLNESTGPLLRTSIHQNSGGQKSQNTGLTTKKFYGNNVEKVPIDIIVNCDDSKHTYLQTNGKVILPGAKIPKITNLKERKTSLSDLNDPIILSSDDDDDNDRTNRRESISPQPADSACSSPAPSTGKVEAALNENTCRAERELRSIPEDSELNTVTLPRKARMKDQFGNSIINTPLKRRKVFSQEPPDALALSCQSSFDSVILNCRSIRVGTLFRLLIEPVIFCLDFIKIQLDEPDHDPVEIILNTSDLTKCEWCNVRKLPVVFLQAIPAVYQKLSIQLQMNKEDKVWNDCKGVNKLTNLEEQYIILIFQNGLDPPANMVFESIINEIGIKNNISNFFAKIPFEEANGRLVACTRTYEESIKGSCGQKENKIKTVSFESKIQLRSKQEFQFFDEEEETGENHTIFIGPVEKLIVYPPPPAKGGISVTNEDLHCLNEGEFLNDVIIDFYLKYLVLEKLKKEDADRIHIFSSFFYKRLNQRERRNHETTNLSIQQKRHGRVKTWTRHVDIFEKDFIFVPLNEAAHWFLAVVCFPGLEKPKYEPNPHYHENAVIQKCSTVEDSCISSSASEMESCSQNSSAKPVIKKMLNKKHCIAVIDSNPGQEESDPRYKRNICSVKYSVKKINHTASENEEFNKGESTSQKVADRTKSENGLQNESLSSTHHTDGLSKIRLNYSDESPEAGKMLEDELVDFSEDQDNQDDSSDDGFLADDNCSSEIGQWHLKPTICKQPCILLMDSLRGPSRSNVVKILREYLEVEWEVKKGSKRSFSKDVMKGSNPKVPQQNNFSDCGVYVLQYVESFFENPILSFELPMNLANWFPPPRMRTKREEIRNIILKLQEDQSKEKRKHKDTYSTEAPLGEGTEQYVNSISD
# [11] = target: T6, Sentrin-specific protease 7 (Homo sapiens, UniProt Q9BQF6); assay: inhibition of human SENP7 cleavage activity – biochemical, luminescence, SAR follow-up (AID 504497); assay type: functional
# T6 sequence (Q9BQF6 whole entry): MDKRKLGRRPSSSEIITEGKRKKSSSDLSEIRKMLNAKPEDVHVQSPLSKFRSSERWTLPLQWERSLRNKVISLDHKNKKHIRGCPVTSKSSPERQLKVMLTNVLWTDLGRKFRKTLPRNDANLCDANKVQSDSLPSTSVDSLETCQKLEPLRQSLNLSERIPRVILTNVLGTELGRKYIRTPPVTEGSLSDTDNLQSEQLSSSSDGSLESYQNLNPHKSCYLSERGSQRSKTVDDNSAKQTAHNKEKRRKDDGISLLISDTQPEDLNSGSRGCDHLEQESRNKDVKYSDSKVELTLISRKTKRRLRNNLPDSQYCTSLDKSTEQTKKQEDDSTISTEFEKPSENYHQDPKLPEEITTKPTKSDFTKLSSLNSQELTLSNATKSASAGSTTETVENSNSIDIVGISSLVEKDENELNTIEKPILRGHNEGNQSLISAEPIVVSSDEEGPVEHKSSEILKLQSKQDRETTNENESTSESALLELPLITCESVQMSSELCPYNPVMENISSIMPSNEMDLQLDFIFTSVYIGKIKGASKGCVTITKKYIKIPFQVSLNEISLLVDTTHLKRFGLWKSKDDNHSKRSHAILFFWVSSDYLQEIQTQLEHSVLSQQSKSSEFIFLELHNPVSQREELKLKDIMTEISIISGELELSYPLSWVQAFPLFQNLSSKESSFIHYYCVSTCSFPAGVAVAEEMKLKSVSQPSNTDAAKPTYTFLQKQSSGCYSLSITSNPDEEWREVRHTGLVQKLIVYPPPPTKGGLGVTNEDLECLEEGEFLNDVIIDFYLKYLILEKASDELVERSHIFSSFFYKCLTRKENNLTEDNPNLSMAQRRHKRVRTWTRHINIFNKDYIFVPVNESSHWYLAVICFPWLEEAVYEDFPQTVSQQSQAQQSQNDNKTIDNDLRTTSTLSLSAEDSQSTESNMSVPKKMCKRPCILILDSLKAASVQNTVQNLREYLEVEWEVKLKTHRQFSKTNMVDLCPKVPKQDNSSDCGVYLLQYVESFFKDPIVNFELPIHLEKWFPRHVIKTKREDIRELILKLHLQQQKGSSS
# Caspase-3 = target: T7, Caspase-3 (Homo sapiens, UniProt P42574); assay: SAR Analysis of small molecule inhibitors of Sentrin-specific proteases (SENPs) using a Caspase-3 Selectivity assay. [Related pubchem assays (depositor defined):AID2540, AID2599, AID434973, AID489001]; assay type: functional
# T7 sequence (P42574 whole entry): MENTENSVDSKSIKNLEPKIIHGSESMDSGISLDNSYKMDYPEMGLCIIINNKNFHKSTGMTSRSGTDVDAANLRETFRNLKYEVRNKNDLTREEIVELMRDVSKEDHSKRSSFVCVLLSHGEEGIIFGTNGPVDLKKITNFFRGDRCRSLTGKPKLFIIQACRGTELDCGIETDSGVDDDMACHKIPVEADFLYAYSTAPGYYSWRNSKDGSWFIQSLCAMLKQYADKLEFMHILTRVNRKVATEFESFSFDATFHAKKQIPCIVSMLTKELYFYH
# Sequence of Sphingosine 1-phosphate receptor 1 (P21453 whole entry): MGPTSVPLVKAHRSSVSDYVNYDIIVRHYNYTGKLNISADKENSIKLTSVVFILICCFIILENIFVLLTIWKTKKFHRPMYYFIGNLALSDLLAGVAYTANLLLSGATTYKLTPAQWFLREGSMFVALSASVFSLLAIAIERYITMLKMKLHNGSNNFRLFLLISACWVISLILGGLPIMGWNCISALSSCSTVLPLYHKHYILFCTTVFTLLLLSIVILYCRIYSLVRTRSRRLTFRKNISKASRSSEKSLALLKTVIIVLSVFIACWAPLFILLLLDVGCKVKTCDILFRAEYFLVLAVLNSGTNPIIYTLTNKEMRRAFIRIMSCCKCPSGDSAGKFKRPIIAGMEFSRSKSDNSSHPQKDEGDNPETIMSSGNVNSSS
# Sequence of Beta Lactamase (Q932Y6 whole entry): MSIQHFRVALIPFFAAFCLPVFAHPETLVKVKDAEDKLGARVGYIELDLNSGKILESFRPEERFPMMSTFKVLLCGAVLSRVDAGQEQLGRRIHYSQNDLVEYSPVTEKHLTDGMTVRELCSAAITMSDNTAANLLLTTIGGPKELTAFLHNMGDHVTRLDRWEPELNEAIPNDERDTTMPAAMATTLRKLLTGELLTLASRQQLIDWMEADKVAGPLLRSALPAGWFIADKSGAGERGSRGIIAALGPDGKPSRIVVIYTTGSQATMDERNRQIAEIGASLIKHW
# Sequence of Sphingosine 1-phosphate receptor 2 (O95136 whole entry): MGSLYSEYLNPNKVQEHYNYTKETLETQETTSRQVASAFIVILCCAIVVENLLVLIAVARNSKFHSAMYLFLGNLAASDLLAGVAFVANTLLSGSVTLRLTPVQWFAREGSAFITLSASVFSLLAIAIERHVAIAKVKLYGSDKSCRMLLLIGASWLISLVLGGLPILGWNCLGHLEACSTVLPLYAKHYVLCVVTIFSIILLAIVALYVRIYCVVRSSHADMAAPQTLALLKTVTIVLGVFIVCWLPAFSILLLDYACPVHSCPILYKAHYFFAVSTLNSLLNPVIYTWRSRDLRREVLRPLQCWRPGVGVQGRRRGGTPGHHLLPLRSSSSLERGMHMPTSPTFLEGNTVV
SMILES,AC50 [1],IC50 [2],IC50 [3],EC50 (Protein RecA),AC50 [4],IC50 [5],AC50 [6],IC50 [7],IC50 (Beta Lactamase),AC50 [8],IC50 (CHO),IC50 [9],IC50 [10],IC50 [11],IC50 (Caspase-3)
COc1ccc(CS(=O)(=O)/C(Cl)=C(/Cl)C(=O)Nc2ccc(OC)nc2)cc1,3.88 µM (active),6.21 µM (active),1.67 µM (active),3.34 µM (active),< 0.26 µM (active),0.852 µM (active),6.84 µM (active),27.9 µM (inactive),> 49.7 µM (inactive),10.6 µM (active),2.03 µM (active),,,,
CCOc1ccc2nc(NC(=O)c3nc(SC(C)C)ncc3Cl)sc2c1,,,,,,,,,,,,> 99 µM (inactive),> 99 µM (inactive),> 99 µM (inactive),> 99 µM (inactive)
